Data published in patent publication US11530218B2, “Spiro compounds as inhibitors of KRAS” (Incyte Corporation, priority 2020, dated 2022).

Assays:
KRAS G12C = KRAS G12C (Homo sapiens, UniProt P01116, G12C); assay: KRAS G12C GDP-GTP exchange assay (bodipy-GDP/GppNHp, SOS1); assay type: biochemical; details: bodipy-loaded KRAS G12C 2.5 nM, 2 hours pre-incubation with inhibitor, 2 hours exchange; read-out: G12C_exchange (KRAS_G12C exchange assay IC50)
Description: (§1) The inhibitor potency of the exemplified compounds was determined in a fluorescence based guanine nucleotide exchange assay, which measures the exchange of bodipy-GDP (fluorescently labeled GDP) for GppNHp (Non-hydrolyzable GTP analog) to generate the active state of KRAS in the presence of SOS1 (guanine nucleotide exchange factor). Inhibitors were serially diluted in DMSO and a volume of 0.1 μL was transferred to the wells of a black low volume 384-well plate. 5 μL/well volume of bodipy-loaded KRAS G12C diluted to 5 nM in assay buffer (25 mM Hepes pH 7.5, 50 mM NaCl, 10 mM MgCl2 and 0.01% Brij-35) was added to the plate and pre-incubated with inhibitor for 2 hours at ambient temperature. Appropriate controls (enzyme with no inhibitor or with a G12C inhibitor (AMG-510)) were included on the plate. The exchange was initiated by the addition of a 5 μL/well volume containing 1 mM GppNHp and 300 nM SOS1 in assay buffer. The 10 μL/well reaction concentration of the bodipy-loaded KRAS G12C, GppNHp, and SOS1 were 2.5 nM, 500 uM, and 150 nM, respectively. The reaction plates were incubated at ambient temperature for 2 hours, a time estimated for complete GDP-GTP exchange in the absence of inhibitor. For the KRAS G12D and G12V mutants, similar guanine nucleotide exchange assays were used with 2.5 nM as final concentration for the bodipy loaded KRAS proteins and with 4 hours and 3 hours incubation after adding GppNHp-SOS1 mixture for G12D and G12V respectively. A cyclic peptide described to selectively bind G12D mutant (Sakamoto et al., BBRC 484.3 (2017), 605-611) or internal compounds with confirmed binding were used as positive controls in the assay plates. Fluorescence intensities were measured on a PheraStar plate reader instrument (BMG Labtech) with excitation at 485 nm and emission at 520 nm.
(§2) Either GraphPad prism or XLfit was used to analyze the data. The IC50 values were derived by fitting the data to a four parameter logistic equation producing a sigmoidal dose-response curve with a variable Hill coefficient. Prism equation: Y=Bottom+(Top−Bottom)/(1+10^((Log IC50−X)*Hill slope)); XLfit equation: Y=(A+((B−A)/(1+((X/C)^D)))) where X is the logarithm of inhibitor concentration and Y is the response.

[1] = tested on: KRAS G12C (MIA PaCa-2 cells); assay: KRAS_G12C cellular pERK HTRF assay; assay type: cell-based, human; parameters: G12C_pERK (KRAS_G12C pERK assay IC50): scale not given here; details: cells incubated with compound 4 hours; for IC50: Homo sapiens, MIA PaCa-2, read-out: G12C_pERK (KRAS_G12C pERK assay IC50)
Description: (§3) MIA PaCa-2 (KRAS G12C; ATCC® CRL-1420), A427 (KRAS G12D; ATCC® HTB53), HPAF-II (KRAS G12D; ATCC® CRL-1997) and NCI-H838 (KRAS WT; ATCC® CRL-5844) cells are purchased from ATCC and maintained in RPMI 1640 media supplemented with 10% FBS (Gibco/Life Technologies). The cells are plated at 5000 cells per well (8 uL) into Greiner 384-well low volume, flat-bottom, tissue culture treated white plates and incubated overnight at 37° C., 5% CO2. The next morning, test compound stock solutions are diluted in media at 3x the final concentration, and 4 uL are added to the cells. The plate is mixed by gentle rotation for 30 seconds (250 rpm) at room temperature. The cells are incubated with the KRAS G12C and G12D compounds for 4 hours or 2 hours respectively at 37° C., 5% CO2.
(§4) 4 uL of 4× lysis buffer with blocking reagent (1:25) (Cisbio) are added to each well and plates are rotated gently (300 rpm) for 30 minutes at room temperature. 4 uL per well of Cisbio anti Phospho-ERK 1/2 d2 is mixed with anti Phospho-ERK 1/2 Cryptate (1:1) are added to each well, mixed by rotation and incubated overnight in the dark at room temperature. Plates are read on the Pherastar plate reader at 665 nm and 620 nm wavelengths. IC50 determination is performed by fitting the curve of inhibitor percent inhibition versus the log of the inhibitor concentration using the GraphPad Prism 7 software.

KRAS G12D = KRAS G12D (Homo sapiens, UniProt P01116, G12D); assay: KRAS G12D GDP-GTP exchange assay (bodipy-GDP/GppNHp, SOS1); assay type: biochemical; details: bodipy loaded KRAS G12D 2.5 nM, 4 hours incubation after GppNHp-SOS1; read-out: G12D_exchange (KRAS_G12D exchange assay IC50)
Description: as §1, §2

[2] = tested on: KRAS G12D (A427, HPAF-II cells); assay: KRAS_G12D cellular pERK HTRF assay; assay type: cell-based; details: cells incubated with compound 2 hours; read-out: G12D_pERK (KRAS_G12D pERK assay IC50)
Description: as §3, §4

KRAS G12C, sequence (P01116 1-188 isoform P01116-2 G12C): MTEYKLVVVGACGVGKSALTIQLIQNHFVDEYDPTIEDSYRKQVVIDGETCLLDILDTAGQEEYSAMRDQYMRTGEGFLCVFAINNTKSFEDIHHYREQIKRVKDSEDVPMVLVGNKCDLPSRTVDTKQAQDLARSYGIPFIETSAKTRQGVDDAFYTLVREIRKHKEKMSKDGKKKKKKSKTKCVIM
KRAS G12D, sequence (P01116 1-188 isoform P01116-2 G12D): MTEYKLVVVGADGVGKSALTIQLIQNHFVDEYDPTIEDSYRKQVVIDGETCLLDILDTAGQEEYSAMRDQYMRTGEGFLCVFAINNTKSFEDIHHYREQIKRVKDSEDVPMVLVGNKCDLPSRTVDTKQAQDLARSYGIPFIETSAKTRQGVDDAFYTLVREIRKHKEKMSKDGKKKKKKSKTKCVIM

Compound | IC50 (KRAS G12C) [µM] | IC50 [1] [µM] | other results
C=CC(=O)N1CCC2(CC1)Nc1c(cnc3c(F)c(-c4cccc5[nH]nc(C)c45)c(Cl)cc13)NC2=O [Example 3, 1-Acryloyl-9′-chloro-7′-fluoro-8′-(3-methyl-1H-indazol-4-yl)-1′,4′-dihydro-3′H-spiro[piperidine-4,2′-pyrazino[2,3-c]quinolin]-3′-one] | 1 to 5 |  | 
C=CC(=O)N1CCC2(C1)C(=O)Nc1c(OC[C@@H]3CCCN3C)nc3c(F)c(-c4cc(O)cc5ccccc45)c(Cl)cc3c12 (stereo partly drawn) [Example 14, 1-Acryloyl-8′-chloro-6′-fluoro-7′-(3-hydroxynaphthalen-1-yl)-4′-(((S)-1-methylpyrrolidin-2-yl)methoxy)spiro[pyrrolidine-3,1′-pyrrolo[2,3-c]quinolin]-2′(3′H)-one] |  |  | G12C_pERK (KRAS_G12C pERK assay IC50) [1]: ††
C=CC(=O)N1CCC2(CC1)C(=O)N(C)c1c(OC[C@@H]3CCCN3C)nc3c(F)c(-c4cc(O)cc5ccccc45)c(Cl)cc3c12 (single isomer, unassigned) [Example 16a] |  |  | G12C_pERK (KRAS_G12C pERK assay IC50) [1]: ††
C=CC(=O)N1CCC2(C1)Nc1c(cnc3c(F)c(-c4c(C)ccc5[nH]ncc45)c(Cl)cc13)NC2=O (racemic) [Example 9, 1′-Acryloyl-9-chloro-7-fluoro-8-(5-methyl-1H-indazol-4-yl)-1,4-dihydro-3H-spiro[pyrazino[2,3-c]quinoline-2,3′-pyrrolidin]-3-one] | 1 to 5 |  | 
CC(C)CCN1C(=O)C2(CCCNC2)c2c1c(OC[C@@H]1CCCN1C)nc1c(F)c(-c3cc(O)cc4ccccc34)c(CCCC#N)cc21 (single isomer, unassigned) [Example 35a] |  |  | IC50 (KRAS G12D): ≤ 0.1 µM; IC50 [2]: 5 to 50 µM
C=CC(=O)N1CCC2(CC1)Nc1c(cnc3c(F)c(-c4cc(O)ccc4Cl)c(Cl)cc13)NC2=O [Example 2, 1-Acryloyl-9′-chloro-8′-(2-chloro-5-hydroxyphenyl)-7′-fluoro-1′,4′-dihydro-3′H-spiro[piperidine-4,2′-pyrazino[2,3-c]quinolin]-3′-one] |  | 1 to 5 | 
C=CC(=O)N1CC2(C1)Nc1c(c(OC[C@@H]3CCCN3C)nc3c(F)c(-c4c(O)cccc4F)c(Cl)cc13)NC2=O [Example 18, 1-Acryloyl-9′-chloro-7′-fluoro-8′-(2-fluoro-6-hydroxyphenyl)-5′-(((S)-1-methylpyrrolidin-2-yl)methoxy)-1′,4′-dihydro-3′H-spiro[azetidine-3,2′-pyrazino[2,3-c]quinolin]-3′-one] |  | 1 to 5 | 
C=CC(=O)N1CCC2(CC1)CC(=O)c1cnc3c(F)c(-c4cc(O)cc5ccccc45)c(Cl)cc3c1O2 [Example 17, 1-Acryloyl-9′-chloro-7′-fluoro-8′-(3-hydroxynaphthalen-1-yl)spiro[piperidine-4,2′-pyrano[3,2-c]quinolin]-4′(3′H)-one] | 1 to 5 |  | 
C=CC(=O)N1CCC2(CC1)Nc1c(cnc3c(F)c(-c4c(F)cccc4OC)c(Cl)cc13)NC2=O [Example 5, 1-Acryloyl-9′-chloro-7′-fluoro-8′-(2-fluoro-6-methoxyphenyl)-1′,4′-dihydro-3′H-spiro[piperidine-4,2′-pyrazino[2,3-c]quinolin]-3′-one] | 1 to 5 |  | 
C=CC(=O)N1CC2(C1)Nc1c(cnc3c(F)c(-c4c(O)cccc4F)c(Cl)cc13)NC2=O [Example 6, 1-Acryloyl-9′-chloro-7′-fluoro-8′-(2-fluoro-6-hydroxyphenyl)-1′,4′-dihydro-3′H-spiro[azetidine-3,2′-pyrazino[2,3-c]quinolin]-3′-one] |  | 1 to 5 | 
C=CC(=O)N1CCC2(CC1)Nc1c(c(OCCN3CCCCC3)nc3c(F)c(-c4c(O)cccc4F)c(Cl)cc13)NC2=O [Example 12, 1-Acryloyl-9′-chloro-7′-fluoro-8′-(2-fluoro-6-hydroxyphenyl)-5′-(2-(piperidin-1-yl)ethoxy)-1′,4′-dihydro-3′H-spiro[piperidine-4,2′-pyrazino[2,3-c]quinolin]-3′-one] |  | 1 to 5 | 
C=CC(=O)N1CCC2(C1)Nc1c(cnc3c(F)c(-c4c(O)cccc4F)c(Cl)cc13)NC2=O (stereo not drawn) [Example 8, 1′-Acryloyl-9-chloro-7-fluoro-8-(2-fluoro-6-hydroxyphenyl)-1,4-dihydro-3H-spiro[pyrazino[2,3-c]quinoline-2,3′-pyrrolidin]-3-one] |  | 1 to 5 | 
C=CC(=O)N1CCC2(CC1)Nc1c(cnc3c(F)c(-c4c(O)cccc4F)c(Cl)cc13)NC2=O [Example 1, 1-Acryloyl-9′-chloro-7′-fluoro-8′-(2-fluoro-6-hydroxyphenyl)-1′,4′-dihydro-3′H-spiro[piperidine-4,2′-pyrazino[2,3-c]quinolin]-3′-one] |  | 1 to 5 | 

Second part, led by results:

IC50 (KRAS G12C) [µM] | IC50 [1] [µM] | Compound | other results
1 to 5 |  | C=CC(=O)N1CCCC2(C1)C(=O)Nc1c(OC[C@@H]3CCCN3C)nc3c(F)c(-c4cc(O)cc5ccccc45)c(Cl)cc3c12 (mixture of isomers) [Example 15, 1-Acryloyl-8′-chloro-6′-fluoro-7′-(3-hydroxynaphthalen-1-yl)-4′-(((S)-1-methylpyrrolidin-2-yl)methoxy)spiro[piperidine-3,1′-pyrrolo[2,3-c]quinolin]-2′(3′H)-one] | 
≤ 0.1 |  | C=CC(=O)N1CCC2(CC1)C(=O)Nc1c(OC[C@@H]3CCCN3C)nc3c(F)c(-c4cc(O)cc5ccccc45)c(Cl)cc3c12 [Example 13, 1-Acryloyl-8′-chloro-6′-fluoro-7′-(3-hydroxynaphthalen-1-yl)-4′-(((S)-1-methylpyrrolidin-2-yl)methoxy)spiro[piperidine-4,1′-pyrrolo[2,3-c]quinolin]-2′(3′H)-one] | G12C_pERK (KRAS_G12C pERK assay IC50) [1]: ††
≤ 0.1 |  | C=CC(=O)N1CCC2(CC1)Nc1c(c(OC[C@@H]3CCCN3C)nc3c(F)c(-c4cc(O)cc5ccccc45)c(Cl)cc13)NC2=O [Example 11, 1-Acryloyl-9′-chloro-7′-fluoro-8′-(3-hydroxynaphthalen-1-yl)-5′-(((S)-1-methylpyrrolidin-2-yl)methoxy)-1′,4′-dihydro-3′H-spiro[piperidine-4,2′-pyrazino[2,3-c]quinolin]-3′-one] | G12C_pERK (KRAS_G12C pERK assay IC50) [1]: ††
≤ 0.1 | 1 to 5 | C=CC(=O)N1CCC2(CC1)Nc1c(c(OC[C@@H]3CCCN3C)nc3c(F)c(-c4c(O)cccc4F)c(Cl)cc13)NC2=O [Example 10, 1-Acryloyl-9′-chloro-7′-fluoro-8′-(2-fluoro-6-hydroxyphenyl)-5′-(((S)-1-methylpyrrolidin-2-yl)methoxy)-1′,4′-dihydro-3′H-spiro[piperidine-4,2′-pyrazino[2,3-c]quinolin]-3′-one] | 
